Data set [1] is classed as in vitro ADME, bovine. As to conditions: serum. The procedure: Stability of miRNA-21-DC and miRNA-155-DC and corresponding ONs was carried out in reaction mixtures (90 µL) containing DCs or ONs at a concentration of 0.1 mg/mL in Dulbecco’s Modified Eagle Medium (DMEM) with 10% FBS at 37 °C for 24 h. Aliquots (10 μL) were taken after 0, 0.5, 1, 2, 4, 8, and 24 h of incubation. The reaction was stopped by adding 10 μL of 8 M urea, and the reaction mixture was immediately frozen in liquid nitrogen. DCs and ONs cleavage products were analyzed in 12% PAAG/8M urea. To identified products, gels were stained with the Stains-All dye and photographed using a gel documentation system.
Figure S12. Stability of Dual conju gat es (DCs) and corresponding Du al oligonucleotides (ONs)
targeted to miR-155 and miR-21 in cell medium DMEM supplemented with 10% FBS . Im a g e s
of the 12% PAAG/8M urea, stained with Stains-Alland kinetics of degradation of DCs and ONs .
Conjugates and oligonucleotides at a concentration of 0. 1 mg/mL were incubated in DMEM
supplemented with 10% FBS at 37 °C for 24 h.
(1 picture or pasted object on this page, not shown here)

The subject of a further data set is miR-21. Description: Ribonuclease activity assay, cleavage of miR-21. The data set is classed as biochemical. As to conditions: buffer (2) 20 mM Tris-HCl pH 7.8, 40 mM KCl, 8 mM MgCl2, 1 mM DTT, 0.02 mg/mL BSA, miRNA 1 µM, DC 20 µM, 37 °C. The protocol: The ribonuclease activity of DCs was studied under two different buffer conditions: buffer (1) contained 50 mM Tris-HCl, pH 7.0, 200 mM KCl, 1 mM EDTA, which imitates intracellular conditions (e.g., pH and potassium ions concentration) and was used in a number of studies previously; and buffer (2) contained 20 mM Tris-HCl, pH 7.8, 40 mM KCl, 8 mM MgCl2, 1 mM DTT, 0.02 mg/mL BSA, which is recommended for in vitro reactions with RNase H (Figure 3 and Figure 4).
Figure 3 Kinetics of cleavage of 5′-[^32P]-labeled miR-17, miR-18a, miR-155, miR-21 and miR-21_1 by corresponding DCs in the buffer (1), containing 50 mM Tris-HCl, pH 7.0, 200 mM KCl and 1 mM EDTA. (a–e) Radioautographs of 18% denaturing PAAG showing the cleavage products of miR-17, miR-18a, miR-155, miR-21 and miR-21_1, respectively. miRNA (1 µM) and corresponding DC (20 µM) were incubated at 37 °C for 72 h. Lanes Im and T1—imidazole ladder and partial RNA digestion with RNase T1, respectively; control–miRNA was incubated in the absence of the conjugate. The incubation time (in hours) is show at the top. SS gap–single-stranded region of miRNA formed upon hybridization with DC; (f) Kinetics of miRNAs cleavage by DCs depending on the incubation time. Data are presented as mean ± s.e.
Figure 4 Kinetics of cleavage of 5′-[^32P]-labeled miR-17, miR-18a, miR-155, miR-21, and miR-21_1 by corresponding DCs in the buffer (2), containing 20 mM Tris-HCl, pH 7.8, 40 mM KCl, 8 mM MgCl2, 1 mM DTT, 0.02 mg/mL BSA. (a–e) Radioautographs of 18% denaturing PAAG showing the cleavage products of miR-17, miR-18a, miR-155, miR-21 and miR-21_1, respectively. miRNA (1 µM) and corresponding DC (20 µM) were incubated at 37 °C for 72 h. Lanes Im and T1–imidazole ladder and partial RNA digestion with RNase T1, respectively; control–miRNA was incubated in the absence of the conjugate. The incubation time (in hours) is shown at the top. SS gap–single-stranded region of miRNA formed upon hybridization with DC; (f) Kinetics of miRNAs cleavage by DCs. Data are presented as mean ± s.e.
The reaction mixture (10 µL) contained 800 cpm (Cherenkov’s counting) of [^32P]-miRNA, 1 μM unlabeled miRNA, one of the conjugates at a concentration 10 or 20 μM and one of the buffers: 50 mM Tris-HCl, pH 7.0, 200 mM KCl, 1 mM EDTA–buffer (1) or 20 mM Tris-HCl, pH 7.8, 40 mM KCl, 8 mM MgCl2, 1 mM DTT, 0.02 mg/mL BSA–buffer (2). The mixture was incubated at 37 °C for 0–72 h and quenched by precipitation of RNA with 2% LiClO4 in acetone (90 µL). RNA was collected by centrifugation and dissolved in loading buffer (8 M urea, 0.025% bromophenol blue, 0.025% xylene cyanol). RNA cleavage products were analyzed in 18% PAAG/8M urea using TBE (100 mM Tris-borate, pH 8.3, 2 mM EDTA) as running buffer. To identify cleavage sites, an imidazole and T1-ladders produced by partial RNA cleavage with 2 M imidazole buffer (pH 7.0) and with RNase T1 [68], respectively, were run in parallel. To obtain quantitative data, gels were dried and analyzed using Molecular Imager FX. The total extent of RNA cleavage and the extent of RNA cleavage at each individual site were determined by using Quantity One software v.4.1 (Bio-Rad, Hercules, CA, USA).

Turning to “ACCCCTAT–linker 1–[GRLRL]2–linker 2–TTAGCATTAA [miRNA-155-DC, Dual oligonucleotide-peptide conjugate targeted to miR-155: catalytic peptide [LRLRG]2 between two 2-aminoadenine-containing oligodeoxyribonucleotides]”, the “half-life time (τ1/2) in 10% FBS” value in data set [1] is recorded as 9.01 ± 0.5 h.
With “TCAACATC–linker 1–[GRLRL]2–linker 2–GATAAGCTA [miRNA-21-DC, Dual oligonucleotide-peptide conjugate targeted to miR-21: catalytic peptide [LRLRG]2 between two 2-aminoadenine-containing oligodeoxyribonucleotides]”, in data set [1], the “half-life time (τ1/2) in 10% FBS” value came out at 8 ± 0.1 h. Also, the “Total Cleavage” value was 4% in the data set on miR-21 (2 h); 13% in the data set on miR-21 (6 h); 30% with miR-21 (24 h); 30% in the data set with miR-21 (48 h); 34% in the data set with miR-21 (72 h).

The values are drawn from article PMC7287882, “Dual miRNases for Triple Incision of miRNA Target: Design Concept and Catalytic Performance” (Molecules, 2020).
